Measured values published in US20130035361A1, “USE OF ERGOTHIONEINE AS A PRESERVATIVE IN FOODS AND BEVERAGES” (priority 2007, published 2013).
Values after ≈ are worked out from the molar mass of the structure shown.

Experiments:
[1] = ERGO concentration found in Pinot noir wines after 18 months of bottle storage; format: physicochemical; conditions: for ERGO Found: Pinot noir wine, after 18 months bottle storage
Description: According to the invention, sulfur dioxide was replaced in whole or in part with L-ergothioneine in Pinot noir wines at bottling.

[2] = Stability over time in food and beverages; format: physicochemical; conditions: stored over a period of several years
[3] = cited from earlier work
[4] = per one unit of L-Ergothioneine; cited from earlier work
[5] = system: LPO formation in mouse liver; conditions: cited from earlier work
liver tissue of rats = conditions: exogenous L-ergothioneine; cited from earlier work

SMILES | ERGO Found ([1]; SO2 added 0 mg/L, ERGO added 10 mg/L at bottling) | ERGO Found ([1]; SO2 added 0 mg/L, ERGO added 30 mg/L at bottling) | ERGO Found ([1]; SO2 added 0 mg/L, ERGO added 50 mg/L at bottling) | ERGO Found ([1]; SO2 added 0 mg/L, ERGO added 70 mg/L at bottling) | presence of ergothioneine in the wine after storage ([1]; Pinot noir wines, SO2 replaced in whole or in part at bottling, after 18 months of storage) | stability over time [2] | water solubility [3] | solubility limit ([3]; room temperature) | units of Vitamin E equivalent to one unit [4] | LPO formation [5] | decomposition of existing LPO [5] | lipid peroxidation by toxic compounds (liver tissue of rats) | ERGO Found ([1]; SO2 added 30 mg/L, ERGO added 0 mg/L at bottling) | ERGO Found ([1]; SO2 added 70 mg/L, ERGO added 0 mg/L at bottling)
C[N+](C)(C)[C@@H](Cc1c[nH]c(=S)[nH]1)C(=O)[O-] [L-ergothioneine] | 8.8 mg/L | 29.8 mg/L | 55.4 mg/L | 81.2 mg/L | still present in the wine | very stable over time | readily water soluble | 900 mM (≈ 206 mg/mL) | ~7000 units of Vitamin E | inhibited LPO formation | enhanced the decomposition of existing LPO | prevent lipid peroxidation |  | 
O=S=O [SO2, sulfur dioxide, reference compound] |  |  |  |  |  |  |  |  |  |  |  |  | 7.3 mg/L | 7.5 mg/L
